Laboratory results published in patent US11389456B2, “Compounds and methods for treating oxalate-related diseases” (OxaluRx, Inc., priority 2018, dated 2022).
≈ marks a conversion by molar mass, not a printed value.

How the values were obtained:
[1] = Solubility in aqueous solution (deionized, distilled water); format: physicochemical; settings: kinetic from dmso stock, 1% DMSO, read-out: Aqueous Solubility H2O
Procedure: (§1) For testing compound solubility in phosphate buffered saline (PBS), compound stock solutions were prepared at 10 mM in 100% DMSO. For testing in aqueous solution, the phosphate buffer was replaced with deionized, distilled water. Eleven grams Na2HPO4 (FW: 141.96 g/mol) and 3.5 g NaH2PO4.2H2O (FW: 156.03 g/mol) was added to 1 L Milli-Q water and adjusted to a pH to 7.4 with phosphoric acid or sodium hydroxide. For incubation, media were preheated to 37° C. Eight μL aliquots of reference and test compound stock solutions (10 mM) were added into 792 μL of 100 mM phosphate buffer (pH 7.4). The final DMSO concentration was 1%. Sample tubes were shaken for 1 hour at 1000 rpm at room temperature.
(§2) The calibration curve was prepared with 300-μM spiking solution (SS) in MeOH:acetonitrile (4:1). Six μL of 10 mM compound was added in 194 μL MeOH/acetonitrile (4:1). Samples were centrifuged for 10 minutes at 12,000 rpm to precipitate undissolved particles. Supernatants were transferred to a new tube or plate and dilute 10-fold and 100-fold with 100 mM buffer. Samples were prepared for LC-MS/MS analysis by adding 5 μL each sample (undiluted, 10-fold diluted, and 100-fold diluted) and 5 μL of standard curve samples to 95 μL of acetonitrile (containing internal standard).

[2] = Solubility in phosphate buffered saline (PBS), pH 7.4; format: physicochemical; settings: phosphate buffer (PBS), aqueous buffer, kinetic from dmso stock; phosphate buffered saline pH 7.4, 1% DMSO, 1 hour shaking at room temperature
Procedure: as §1, §2

[3] = Metabolic stability in human liver microsomal preparation; format: in vitro ADME; settings: pH 7.4, human liver microsomes, NADPH, 37° C.; for half-life at 1 μM: 0-45 min, read-out: Metabolic Stability t1/2
Procedure: For evaluating the metabolic stability in human liver microsomal preparation, three buffers were prepared. Buffer A had 1.0 L of 0.1 M monobasic potassium phosphate buffer containing 1.0 mM EDTA. Buffer B had 1.0 L of 0.1 M dibasic potassium phosphate buffer containing 1.0 mM EDTA. Buffer C had 0.1 M potassium phosphate buffer, 1.0 mM EDTA, adjusted to a pH 7.4 via titrating 700 mL buffer B with buffer A. Reference compound (ketanserin) and test compounds spiking solutions (500 μM) were prepared by adding 10 μL of 10 mM DMSO stock compound solution into 190 μL acetonitrile. A volume of 1.5 μL 500 μM spiking solution and 18.75 μL 20 mg/mL human liver microsomes were added into 479.75 μL of Buffer C on ice. A stock solution of 6 mM NADPH was prepared by dissolving NADPH into Buffer C.
Wells on an assay plate were iced and filled with 30 μL 1.5-μM spiking solution containing 0.75 mg/mL microsomes solution and designated for different timepoints (0-, 5-, 15-, 30-, 45-min). For the 0-min timepoint, 135 μL acetonitrile containing internal standard were added followed by 15 μL of NADPH stock solution (6 mM). All other plates were preincubated at 37° C. for 5 minutes and 15 μL NADPH stock solution (6 mM) were added to the plates to start the reaction. At 5-min, 15-min, 30-min, and 45-min, 135 μL acetonitrile containing internal standard were added to the wells of corresponding plates, respectively, to stop the reaction. After quenching, the plates were shaken on the vibrator (IKA, MTS 2/4) for 10 min at 600 rpm and then centrifuged at 5594×g for 15 minutes (Thermo Multifuge×3R). Fifty μL supernatant from each well were transported into a 96-well sample plate containing 50 μL of ultra-pure water (Millipore, ZMQS50F01) for LC/MS analysis.

[4] = Stability in human plasma; format: in vitro ADME; settings: read-out: Plasma Stability T1/2
Procedure: Stability in Human Plasma.
Stock compounds were prepared for testing the stability in human plasma. First, 0.05 M sodium phosphate and 0.07 M NaCl buffer, pH 7.4, were pre-heated. In deionized water, 14.505 g/L Na2HPO 12H2O, 1.483 g/L NaH2PO4.2H2O and 4.095 g/L NaCl were dissolved. The basic solution was titrated with the phosphoric acid to pH 7.40. Frozen plasma was quickly thawed at 37° C. The plasma was centrifuged at 3,000 rpm for 8 minutes to remove clots, then pipetted and pooled as the plasma stock for the experiment. Only plasma within the range of pH 7.4 to pH 8 was used. If higher than pH 8, the plasma was discarded. The initial pH of the plasma was not adjusted to pH 7.4 with acid or by bubbling with carbon dioxide. By using a 5% carbon dioxide incubator and PBS buffer, a pH of 7.4 will be reached after the 4-hour equilibrium dialysis time. Plasma was iced until use.
Spiking solution A with 0.5 mM testing compounds was prepared by adding 10 μL of 10 mM test compounds stock solution to 190 μL DMSO. Spiking solution B with 0.02 mM testing compound was prepared by adding 40 μL of spiking solution A to 960 μL of […] sodium phosphate buffer with 0.5% BSA. The plasma and spiking solution B were prewarmed at 37° C. for 5 minutes. Ten μL of pre-warmed spiking solution B was added into the wells designated for all the time points (5, 15, 30, 45, 60 minutes). For the 0-minute timepoint, 400 μL acetonitrile containing internal standard were added to the wells of 0-minute plate and then 90 μL plasma were added. For the other timepoints, 90 μL of pre-warmed plasma were added into the wells (0, 5, 15, 30, 45, 60 minutes) and the timing was started. At 5, 15, 30, 45, 60 minutes, 400 μL acetonitrile containing internal standard were added to the wells of corresponding plates, respectively, to stop the reaction. After quenching, the plates were shaken on a vibrator (IKA, MTS 2/4) for 10 minutes at 600 rpm and then centrifuged at 5594×g for 15 minutes (Thermo Multifuge×3R). Fifty μL of supernatant was transferred from each well into a 96-well sample plate containing 50 μL ultra-pure water (Millipore, ZMQS50F01) for LC/MS analysis.

[5] = Protein binding (plasma equilibrium dialysis); format: in vitro ADME; settings: 5 hours at 37° C.; for fraction unbound at 5 h, 1 μM: read-out: Protein Binding Fraction Bound (converted)
Procedure: For testing protein binding of stock compounds solubilized in DMSO, spiking solutions of test and reference compounds were prepared. Solution A (0.5 mM) was prepared by adding 10 μL of 10 mM stock solution into 190 μL of DMSO. Solution B (0.02 mM) was prepared by adding 8 μL of Solution A into 192 μL of 0.05 M sodium phosphate buffer. The final DMSO concentration in Solution B was 4%.
To prepare test and reference compounds in plasma, a 96-well plate with 380 μL aliquots of plasma in the wells designed for plasma and buffer, respectively. Twenty μL of Solution B (0.02 mM of test and reference compounds) were spiked into the pre-loaded plasma in the 96-well plate. The final test concentration is 1 μM containing 0.2% DMSO.
For dialysis sample loading a plasma again buffer system was prepared by applying aliquots of 100 μL of blank dialysis buffer to the receiver side of dialysis chambers and then applying aliquots of 100 μL of the plasma spiked with test and reference compounds to the donor side of the dialysis chamber. A 25-μL aliquot of the plasma spiked with test and reference compounds was added into a 96-well sample preparation plate as T″0″ plasma samples. Aliquots were mixed with the same volume of blank buffer (50:50, volume:volume). Samples were quenched with 200 μL of acetonitrile containing internal standard. The dialysis block was covered and a shaken at 60 rpm for 5 hours at 37° C.
After a 5-hour incubation, dialyzed samples were prepared from 25-μL aliquots from both the donor and receiver sides of the dialysis apparatus into new sample preparation plates. The aliquots were mixed with same volume of opposite matrixes. The samples were quenched with 200 μL acetonitrile containing internal standard. All 0-hour and 5-hour samples were vortexed at 600 rpm for 10 min followed by centrifugation at 5594×g for 15 minutes (Thermo Multifuge×3R). Fifty μL of the supernatants were transferred to anew 96-well plate and mixed with 50 μL Milli-Q water. The sample plate was covered and frozen at −20° C. until LC/MS/MS analysis.

[6] = biological target: recombinant full-length human hydroxyacid oxidase 1 (HAO1), the equivalent of hGOX (Homo sapiens (Human), UniProt Q9UJM8); experiment: In-vitro human glycolate oxidase (hGOX) assay (Amplex red/HRP fluorescence); format: biochemical
Sequence of recombinant full-length human hydroxyacid oxidase 1 (HAO1), the equivalent of hGOX (Q9UJM8 whole entry): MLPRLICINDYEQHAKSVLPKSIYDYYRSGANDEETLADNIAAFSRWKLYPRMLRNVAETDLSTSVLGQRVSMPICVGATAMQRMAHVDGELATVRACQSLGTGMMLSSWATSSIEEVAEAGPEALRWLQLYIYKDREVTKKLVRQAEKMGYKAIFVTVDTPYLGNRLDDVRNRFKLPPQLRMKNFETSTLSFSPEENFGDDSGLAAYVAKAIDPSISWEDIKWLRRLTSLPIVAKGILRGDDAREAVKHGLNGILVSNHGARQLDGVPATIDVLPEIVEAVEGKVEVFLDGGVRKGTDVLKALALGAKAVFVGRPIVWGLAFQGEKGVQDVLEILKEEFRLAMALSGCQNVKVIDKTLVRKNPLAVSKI
Procedure: Biological Activity Assay: In-Vitro Human Glycolate Oxidase (hGOX) Assay
The in-vitro glycolate oxidase assay was performed using recombinant full-length human hydroxyacid oxidase 1 (HAO1), the equivalent of hGOX. […] Purified HAO1 was dissolved in assay buffer consisting of 10 mM NaCl, 110 mM KCl, 2 mM MgCl2, 50 mM HEPES (pH 7.4) and 0.01% Triton™ X-100.

| solubility at 1 h [1] [µM] | solubility at 1 h [2] [µM] | CLint scaled at 1 μM [3] [mL/min/kg] | half-life at 1 μM [3] [h] | half-life at 2 μM [4] [h] | recovery at 5 h, 1 μM [5] [%] | fraction unbound at 5 h, 1 μM [5] | IC50 [6] [nM] | Structure (SMILES) |
| --- | --- | --- | --- | --- | --- | --- | --- | --- |
| 80.6 (≈ 18.5 µg/mL) | 92.4 (≈ 21.2 µg/mL) | 3.11 | 9.31 | 1.96 | 110 | 0.025 | 24 | C#Cc1cccc(Oc2[nH]nnc2C(=O)O)c1 [Example I-288, 5-(3-ethynylphenoxy)-1H-1,2,3-triazole-4-carboxylic acid] |
| 90.7 (≈ 31.7 µg/mL) | 112 (≈ 39 µg/mL) | < 0.15 | > 83.3 | 1.67 | 104 | 0.017 | 3 | O=C(O)c1nn[nH]c1Oc1cccc(-c2cc(Cl)cc(Cl)c2)c1 [Example I-302, 5-((3′,5′-Dichloro-[1,1′-biphenyl]-3-yl)oxy)-1H-1,2,3-triazole-4-carboxylic acid] |
| 98.4 (≈ 25.7 µg/mL) | 104 (≈ 27.1 µg/mL) | 11.3 | 2.55 | 1.22 | 114 | 0.002 | 33 | CC(C)Cc1ccc(Oc2[nH]nnc2C(=O)O)cc1 [Example I-299, 5-(4-Isobutylphenoxy)-1H-1,2,3-triazole-4-carboxylic acid] |
| 115 (≈ 37.4 µg/mL) | 111 (≈ 36.2 µg/mL) | 5.47 | 5.3 | 6.68 | 105 | 0.007 | 4 | O=C(O)c1nn[nH]c1Oc1ccc(-c2ccc3c(c2)OCO3)cc1 [Example I-304, 5-(4-(Benzo[d][1,3]dioxol-5-yl)phenoxy)-1H-1,2,3-triazole-4-carboxylic acid] |

The next lines start with the compound.

| Structure (SMILES) | solubility at 1 h [1] [µM] | solubility at 1 h [2] [µM] | CLint scaled at 1 μM [3] [mL/min/kg] | half-life at 1 μM [3] [h] | half-life at 2 μM [4] [h] | recovery at 5 h, 1 μM [5] [%] | fraction unbound at 5 h, 1 μM [5] | IC50 [6] [nM] |
| --- | --- | --- | --- | --- | --- | --- | --- | --- |
| O=C(O)c1nn[nH]c1Oc1ccc(C2CCC2)cc1 [Example I-275, 5-(4-Cyclobutylphenoxy)-1H-1,2,3-triazole-4-carboxylic acid] | 110 (≈ 28.5 µg/mL) | 115 (≈ 29.8 µg/mL) | 18.3 | 1.58 | 1.7 | 98.5 |  | 22 |
| O=C(O)c1[nH]nnc1Oc1ccc(C2CCCCC2)cc1 [Example I-266, 5-(4-Cyclohexylphenoxy)-1H-1,2,3-triazole-4-carboxylic acid] | 108 (≈ 31 µg/mL) | 96.5 (≈ 27.7 µg/mL) | 26.4 | 1.1 | 3.11 | 101 |  | 30 |
| Cc1ccc(-c2ccc(Sc3[nH]nnc3C(=O)O)cc2)cc1 [Example I-129, 5-((4′-Methyl-[1,1′-biphenyl]-4-yl)thio)-1H-1,2,3-triazole-4-carboxylic acid] | 72.7 (≈ 22.6 µg/mL) | 116 (≈ 36.1 µg/mL) | 21.6 | 1.34 | 1.44 | 113 |  | 41 |
| COc1ccc(-c2ccc(Oc3[nH]nnc3C(=O)O)cc2)cc1OC [Example I-270, 5-((3′,4′-Dimethoxy-[1,1′-biphenyl]-4-yl)oxy)-1H-1,2,3-triazole-4-carboxylic acid] | 109 (≈ 37.2 µg/mL) | < 0.2 | 2.72 | 10.6 | 5.2 | 101 | 0.008 | 13 |
| CS(=O)(=O)c1ccc(-c2ccc(Oc3[nH]nnc3C(=O)O)cc2)cc1 [Example I-167, 5-((4′-(methylsulfonyl)-[1,1′-biphenyl]-4-yl)oxy)-1H-1,2,3-triazole-4-carboxylic acid] | 112 (≈ 40.4 µg/mL) | 116 (≈ 41.9 µg/mL) | 1.7 | 17 | 6.19 | 95.5 |  | 8 |
| O=C(O)c1[nH]nnc1Oc1ccc(Cl)c(Cl)c1 [Example I-050, 5-(3,4-Dichlorophenoxy)-1H-1,2,3-triazole-4-carboxylic acid] | 102 (≈ 28 µg/mL) | 120 (≈ 33 µg/mL) | 2.47 | 11.7 | 2.35 | 71.2 |  | 12 |
| O=C(O)c1nn[nH]c1Oc1ccc(Cl)cc1 [Example I-033, 5-(4-Chlorophenoxy)-1H-1,2,3-triazole-4-carboxylic acid] | 108 (≈ 25.8 µg/mL) | 121 (≈ 29 µg/mL) | < 0.15 | > 83.3 | 1.26 | 123 |  | 67 |
